Values of other authors, collected in patent US6303615A, “2,3 disubstituded-4(3H)-quinazolinones” (Pfizer Inc, priority 1999, dated 2001).

Key:
[1] = reported in literature (LaPeillet et al.)
[2] = reported in literature (Sheardown et al.; Buchan et al.; LePeillet et al.)

| SMILES | neuroprotection in rat global ischemia models [1] | preventing global and focal ischemic damage [2] |
| --- | --- | --- |
| CC1=NN=C(c2ccc(N)cc2)c2cc3c(cc2C1)OCO3 [GKYI 52466] | effective neuroprotective agent | – |
| NS(=O)(=O)c1cccc2c1c([N+](=O)[O-])cc1[nH]c(=O)c(=O)[nH]c12 [NBQX, 2,3-dihydroxy-6-nitro-7-sulfamoylbenzo[f-]quinoxaline] | – | effective |
